Experimental data: US9024021B2, “Diarylacetylene hydrazide containing tyrosine kinase inhibitors” (Sun Pharma Advanced Research Company Ltd., priority 2011, dated 2015)

Assays:
[1] = system: K562 cells; test: In-vitro cell proliferation assay (MTT), K562 cells; format: cell-based; settings: for inhibition at 0.01 µM / inhibition at 0.1 µM: Homo sapiens
Description: In-Vitro Cell Proliferation Assay
K562/U937 cells (2×10^4 per well) were incubated with the test compounds/vehicle in a total volume of 200 μL of media at 37° C. with 5% CO2. […] The cells were incubated overnight at 37° C. with 5% CO2. On Day 5 the optical density was measured at 570 nm with 630 nm as reference wavelength. The optical density in the vehicle treated wells was compared with that of the test compound treated wells.

[2] = biological target: T1, Abl (T315I) (human) (Homo sapiens, UniProt P00519, T315I); test: Abl-T315I kinase inhibition (in vitro); format: biochemical
T1 construct: purchased Millipore Pharma Services (contract assay, UK pharmacology laboratory)
Description: The kinase assays were performed by Millipore Pharma Services at their UK pharmacology laboratory.
[specific activity approx. 500 cpm/pmol, concentration as required). The reaction is initiated by the addition of the MgATP mix. After incubation for 40 minutes at room temperature, the reaction is stopped by the addition of 5 μL of a 3% phosphoric acid solution. 10 μL of the reaction is then spotted onto a P30 filtermat and washed three times for 5 minutes in 75 mM phosphoric acid and once in methanol prior to drying and scintillation counting.
Within each kinase assay, percent of control values were calculated for each test compound raw data point based on mean minimum (0%) and maximum (100%) controls (n=4 per control) for that kinase (sample−mean minimum/mean maximum−mean minimum×100%). Percent inhibition was calculated from these values (100−mean percent of control).

SMILES	inhibition at 0.01 µM ([1]; 10 nM) [%]	inhibition at 0.1 µM ([1]; 100 nM) [%]	other results
Cc1ccc(C(=O)NNC(=O)c2c(Cl)cc(Cl)cc2Cl)cc1C#Cc1cnc2ccccc2c1 [I.1, 2,4,6-Trichloro-N′-[4-methyl-3-[2-(3-quinolyl)ethynyl]benzoyl]benzohydrazide]	101	105	
Cc1ccc(C(=O)NNC(=O)c2ccc(CN3CCN(C)CC3)c(C(F)(F)F)c2)cc1C#Cc1cnc2ccccc2c1 [I.3, 4-Methyl-N′-[4-[(4-methylpiperazin-1-yl)methyl]-3-(trifluoromethyl)benzoyl]-3-[2-(3-quinolyl)ethynyl]benzohydrazide]	14.6	73.4	
Cc1ccc(C(=O)NNC(=O)c2c(Cl)cccc2Cl)cc1C#Cc1cnc2ccccc2c1 [I.5, N′-(2,6-Dichlorobenzoyl)-4-methy1-3-[2-(3-quinolyl)ethynyl]benzohydrazide]			% Inhibition of cell proliferation in K562 cells ([1]; 10 nM): 99.8%; % Inhibition of cell proliferation in K562 cells ([1]; 100 nM): 99.9%; % Inhibition of Abl-T315I kinase ([2]; 3 nM): 30.0%; % Inhibition of Abl-T315I kinase ([2]; 30 nM): 83.0%
Cc1cn(-c2cc(C(=O)NNC(=O)c3ccc(C)c(C#Cc4cnc5ccccc5c4)c3)cc(C(F)(F)F)c2)cn1 [I.7, 4-Methyl-N′-[3-(4-methylimidazol-1-yl)-5-(trifluoromethyl)benzoyl]-3-[2-(3-quinolyl)ethynyl]benzohydrazide]	12.6	43.1	
Cc1cc(C)c(C(=O)NNC(=O)c2ccc(C)c(C#Cc3cnc4ccccc4c3)c2)c(C)c1 [I.8, 2,4,6-Trimethyl-N′-[4-methyl-3-[2-(3-quinolyl)ethynyl]benzoyl]benzohydrazide]	53.6	80.3	
Cc1ccc(C(=O)NNC(=O)c2c(C)cccc2Br)cc1C#Cc1cnc2ccccc2c1 [I.11, N′-(2-Bromo-6-methylbenzoyl)-4-methyl-3-[2-(3-quinolyl)ethynyl]benzohydrazide]	78.9	79.9	
COc1cccc(C)c1C(=O)NNC(=O)c1ccc(C)c(C#Cc2cnc3ccccc3c2)c1 [I.13, N′-(2-Methoxy-6-methylbenzoyl)-4-methyl-3-[2-(3-quinolyl)ethynyl]benzohydrazide]	52.2	73.5	
Cc1ccc(C(=O)NNC(=O)c2c(C)cccc2F)cc1C#Cc1cnc2ccccc2c1 [I.14, N′-(2-Fluoro-6-methylbenzoyl)-4-methyl-3-[2-(3-quinolyl)ethynyl]benzohydrazide]	68.5	71.7	inhibition at 0.003 µM ([2]; 3 nM): 1%; inhibition at 0.03 µM ([2]; 30 nM): 60%
Cc1ccc(C(=O)NNC(=O)c2c(Cl)cc(Cl)cc2Cl)cc1C#Cc1cnc2cnccn12 [I.15, 2,4,6-Trichloro-N′-[3-[2-(2-imidazo[1,2-a]pyrazin-3-yl)ethynyl]-4-methylbenzoyl]benzohydrazide]			% Inhibition of cell proliferation in K562 cells ([1]; 10 nM): 82.8%; % Inhibition of cell proliferation in K562 cells ([1]; 100 nM): 85.0%
Cc1ccc(C(=O)NNC(=O)c2c(C)cccc2Cl)cc1C#Cc1cnc2ccccn12 [I.19, N′-(2-Chloro-6-methylbenzoyl)-3-[2-(imidazo[1,2-a]pyridin-3-yl)ethynyl]-4-methylbenzohydrazide]	60.2	80.2	
Cc1cccc(Cl)c1C(=O)NNC(=O)c1ccc(F)c(C#Cc2cnc3ccccc3c2)c1 [I.21, N′-(2-Cchloro-6-methylbenzoyl)-4-fluoro-3-[2-(3-quinolyl)ethynyl]benzohydrazide]			% Inhibition of cell proliferation in K562 cells ([1]; 10 nM): 40.9%; % Inhibition of cell proliferation in K562 cells ([1]; 100 nM): 98.6%
Cc1ccc(C(=O)NNC(=O)c2c(F)cccc2I)cc1C#Cc1cnc2ccccc2c1 [I.23, N′-(2-Fluoro-6-iodobenzoyl)-4-methyl-3-[2-(3-quinolyl)ethynyl]benzohydrazide]	68.1	72.6	
Cc1ccc(C(=O)NNC(=O)c2c(Cl)cccc2C(F)(F)F)cc1C#Cc1cnc2ccccc2c1 [I.24, N′-[2-Chloro-6-(trifluoromethyl)benzoyl]-4-methyl-3-[2-(3-quinolyl)ethynyl]benzohydrazide]	71.1	71.3	
Cc1ccc(C(=O)NNC(=O)c2c(F)cccc2C(F)(F)F)cc1C#Cc1cnc2ccccc2c1 [I.25, N′-[2-Fluoro-6-(trifluoromethyl)benzoyl]-4-methyl-3-[2-(3-quinolyl)ethynyl]benzohydrazide]	71.5	73	inhibition at 0.003 µM ([2]; 3 nM): 26%; inhibition at 0.03 µM ([2]; 30 nM): 65%
Cc1ccc(C(=O)NNC(=O)c2c(C)cccc2Cl)cc1C#Cc1cnc2ccc(Cl)cc2n1 [I.26, N′-(2-Chloro-6-methylbenzoyl)-3-[2-(7-chloroquinoxalin-2-yl)ethynyl]-4-methylbenzohydrazide]	71.8	78.2	inhibition at 0.003 µM ([2]; 3 nM): 3%; inhibition at 0.03 µM ([2]; 30 nM): 41%
Cc1ccc(C(=O)NNC(=O)c2c(C)cccc2Cl)cc1C#Cc1cnc2ccccc2n1 [I.27, N′-(2-Chloro-6-methylbenzoyl)-4-methyl-3-[2-(quinoxalin-2-yl)ethynyl]benzohydrazide]	79.3	75.3	inhibition at 0.003 µM ([2]; 3 nM): 0%; inhibition at 0.03 µM ([2]; 30 nM): 55%
Cc1ccc(C(=O)NNCc2cccnc2Cl)cc1C#Cc1cnc2ccccc2c1 [I.29, N′-(2-Chloronicotinyl)-4-methyl-3-[2-(3-quinolyl)ethynyl]benzohydrazide]	27.7	78.5	
Cc1ccc(C(=O)NNC(=O)c2ccccc2C)cc1C#Cc1cnc2ccccc2c1 [I.30, N′-(2-Methylbenzoyl)-4-methyl-3-[2-(3-quinolyl)ethynyl]benzohydrazide]	49	85	
CCc1cccc(Cl)c1C(=O)NNC(=O)c1ccc(C)c(C#Cc2cnc3ccccc3c2)c1 [I.31, N′-(2-Chloro-6-ethylbenzoyl)-4-methyl-3-[2-(3-quinolyl)ethynyl]benzohydrazide]	74.2	81.4	
Cc1ccc(C(=O)NNC(=O)c2c(Cl)cccc2C(C)C)cc1C#Cc1cnc2ccccc2c1 [I.32, N′-(2-Chloro-6-isopropylbenzoyl)-4-methyl-3-[2-(3-quinolyl)ethynyl]benzohydrazide]	50.6	81.9	
COc1cccc(Cl)c1C(=O)NNC(=O)c1ccc(C)c(C#Cc2cnc3ccccc3c2)c1 [I.34, N′-(2-Chloro-6-methoxybenzoyl)-4-methyl-3-[2-(3-quinolyl)ethynyl]benzohydrazide]	75.5	82.2	
Cc1ccc(C(=O)NNC(=O)c2c(C)cccc2[N+](=O)[O-])cc1C#Cc1cnc2ccccc2c1 [I.36, N′-(2-Methyl-6-nitrobenzoyl)-4-methyl-3-[2-(3-quinolyl)ethynyl]benzohydrazide]	75.9	77.3	
Cc1ccc(C(=O)NNC(=O)c2c(Cl)cccc2I)cc1C#Cc1cnc2ccccc2c1 [I.39, N′-(2-Chloro-6-iodobenzoyl)-4-methyl-3-[2-(3-quinolyl)ethynyl]benzohydrazide]	77.1	80.5	
Cc1ccc(C(=O)NNC(=O)c2ccccc2Cl)cc1C#Cc1cnc2ccccc2c1 [I.40, N′-(2-Chlorobenzoyl)-4-methyl-3-[2-(3-quinolyl)ethynyl]benzohydrazide]	59.9	84.3	
Cc1ccc(C(=O)NNC(=O)c2c(Cl)cccc2Cl)cc1C#Cc1cnc2cccnn12 [I.41, N′-(2,6-Dichlorobenzoyl)-4-methyl-3-[(imidazo(1,2-b)pyridazin-3-yl)ethynyl]benzohydrazide]	82.5	81.1	
Cc1ccc2ncc(C#Cc3cc(C(=O)NNC(=O)c4c(C)cccc4Cl)ccc3C)cc2c1 [I.44, N′-(2-Chloro-6-methylbenzoyl)-4-methyl-3-[2-(6-methyl-3-quinolyl)ethynyl]benzohydrazide]	77.7	84.4	
Cc1ccc(C(=O)N(C)NC(=O)c2c(C)cccc2Cl)cc1C#Cc1cnc2ccccc2c1 [I.45, N-Methyl-N′-(2-Chloro-6-methylbenzoyl)-4-methyl-3-[2-(3-quinolyl)ethynyl]benzohydrazide]	10.2	78.2	
Cc1ccc(C(=O)NNC(=O)c2c(C)cccc2C)cc1C#Cc1cnc2ccccc2c1 [I.46, N′-(2,6-Dimethylbenzoyl)-4-methyl-3-[2-(3-quinolyl)ethynyl]benzohydrazide]	77.9	83.9	
Cc1ccc(C(=O)NNC(=O)c2c(C)cccc2Cl)cc1C#Cc1cnc2ccc(Cl)cc2c1 [I.50, N′-(2-Chloro-6-methylbenzoyl)-4-methyl-3-[2-(6-chloro-3-quinolyl)ethynyl]benzohydrazide]	69.6	75	
Cc1cccc(Cl)c1C(=O)NNC(=O)c1cccc(C#Cc2cnc3ccccc3c2)n1 [I.60, N′-(2-Chloro-6-methylbenzoyl)-6-[2-(3-quinolyl)ethynyl]pyridine-2-carboxylic acid hydrazide]	8.6	8.5	
